Measurements published in article PMC9063446, “Biochemical and in silico identification of the active site and the catalytic mechanism of the circadian deadenylase HESPERIN” (FEBS Open Bio, 2022).

T1: AtHESPERIN (Hesperin) (Arabidopsis thaliana, UniProt A8MS41)
T1 construct: gene CCR4-4; HESPERIN cDNA in pATHRA (pET-15b derived), E. coli BL21-GOLD(DE3); N-terminal 6xHis tag cut by HRV 3C protease; SEC; oligomer, mainly trimer (~150 kDa)
T1 sequence (A8MS41 1-417): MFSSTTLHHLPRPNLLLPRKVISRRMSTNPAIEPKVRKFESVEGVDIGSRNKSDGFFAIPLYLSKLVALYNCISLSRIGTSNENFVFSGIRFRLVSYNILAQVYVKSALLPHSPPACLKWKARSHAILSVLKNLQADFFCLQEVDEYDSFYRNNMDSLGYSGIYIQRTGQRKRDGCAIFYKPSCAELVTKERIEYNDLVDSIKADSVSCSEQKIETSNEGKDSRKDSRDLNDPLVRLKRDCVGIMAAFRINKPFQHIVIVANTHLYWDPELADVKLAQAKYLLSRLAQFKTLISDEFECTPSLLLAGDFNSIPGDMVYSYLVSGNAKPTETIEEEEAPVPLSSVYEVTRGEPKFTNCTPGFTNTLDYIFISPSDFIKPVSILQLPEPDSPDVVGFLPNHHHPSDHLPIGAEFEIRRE

B1: AtHESPERIN (enzyme, Arabidopsis thaliana, UniProt A8MS41 1-417, looked up)
chain: T1 sequence (A8MS41 1-417)
notes: AtHESPERIN (Hesperin), circadian EEP deadenylase of Arabidopsis thaliana, UniProtKB A8MS41; cDNA cloned in pATHRA behind 6x His tag and HRV 3C site; The His tag was removed with HRV 3C protease (site LEVLFQ/GP), so residues of the site may be left at the N-terminus; It calls the oligomer mainly trimeric; also called native AtHESPERIN; wild-type AtHESPERIN; source: E. coli BL21-GOLD (DE3), …

Columns and labels:
AtHESPERIN (Hesperin) = target: T1, AtHESPERIN (Hesperin); test: colorimetric methylene blue poly(A) degradation assay, modified Hanes-Woolf plot; type: biochemical; details: substrate poly(A); Buffer R with 2 mM MgCl2, 0.1 M NaCl, pH 6.5, 25 °C; competitive, reaction product
[1] = target: the molecule itself; test: native gel or EMSA; 7% PAGE under nondenaturing conditions for acidic proteins; 16 ug AtHESPERIN incubated with urea, up to 4 M; BSA and urease as mass standards

Molecule | Ki (AtHESPERIN (Hesperin)) [nM] | stoichiometry N [1]
Nc1ncnc2c1ncn2[C@@H]1O[C@H](COP(=O)(O)O)[C@@H](O)[C@H]1O [AMP] | 1800 ± 200 | 
B1 |  | 3
